# Experimental data: patent publication US20020115122A1, “Method and apparatus for automated assessment of the immunoregulatory status of the mononuclear leukocyte immune system” (priority 1998, published 2002)
# Assays:
# [1] = tested on: peripheral blood mononuclear cells from normal donors; experiment: Stimulation index by tritiated thymidine uptake in PHA culture; assay type: cell-based, human; details: 72 hours in culture with PHA
# Experimental: This analysis is correlated with the stimulation index as measured by a 72 hour PHA culture with tritiated thymidine uptake. Peripheral blood mononuclear cells from normal donors were isolated by density gradient centrifugation, cultured with PHA, incubated with monoclonal antibodies to select mononuclear cell subclass antigenic determinants and to IL-2 receptors and four parameter data generated and analyzed similar as described in “Detailed Description”. Monoclonal antibodies used included FITC-conjugated antibody for the antigenic determinants Leu-4, Leu-3a or Leu-2a, and PE-conjugated monoclonal antibody for IL-2 receptor. Four parameter data was collected on cells using an EPICS-V flow cytofluorometer (Coulter Corporation, Hialeah, Fla.) configured as described in “Detailed Description” with the following modification: the argon laser was used at 500 milliwatts. Forward and orthogonal light scatter parameters were analyzed to determine if the cell was within an area of interest which substantially included lymphocytes, lymphoblasts and monocytes. Green and red fluorescence data analysis was performed for such cells. The percentage of antigenic determinant and/or IL-2 receptor positive mononuclear cells, i.e., Leu-4+, Leu-3a+, Leu-2a+, IL2R+, leu-4+IL2R+, Leu-3a+IL2R+and Leu-2a+IL2R+, was determined as per the methods described herein. […]
# [2] = tested on: peripheral blood mononuclear cells from normal donors; experiment: Antigenic determinant and IL-2 receptor expression on PHA stimulated mononuclear cells (flow cytofluorometry); assay type: cell-based, human; details: for IL2R+ percentage positive / Leu 2a+ percentage positive / Leu 3a+ percentage positive / Leu 4+ percentage positive: N = 9, ± standard error; for ratio of Activated Leu-3a+: Activated Leu-2a+ cells: at 18 hours in culture with PHA
# Experimental: The sample of isolated cells is cultured with a standard stimulus for a period of time sufficient to allow a measurable amount of activation antigen expression, as influenced by mononuclear cell subclass interaction, to develop. In this particular embodiment, the isolated cells at a concentration of 1 million cells per milliliter are cultured with PHA at a concentration of 37.5 micrograms per milliliter, serving as a standard stimulus, for 18 hours. RPMI 1640 with fetal calf serum and glutamine serve as a culture media. The culture time is determined for each particular standard stimulus using samples from normal subjects, culturing portions of each sample for different lengths of time and determining the amount of activation antigen expression for each culture time. A measurable amount of IL-2 receptor expression is observed about 18 hours after initiating the culture with PHA. The 18 hour culture period facilitates the use of this invention as a clinical assay.
# After culturing, the cells are washed to remove the standard stimulus and then aliquots of cells are simultaneously incubated with two monoclonal antibodies, each directly conjugated to different fluorometrically distinguishable fluorophores. The first fluorophore-conjugated monoclonal antibody binds to a select mononuclear cell subclass antigenic determinant and the second fluorometrically distinguishable fluorophore-conjugated monoclonal antibody binds to a select cell surface activation antigen. After incubation, the cells are washed to remove excess antibody and, in this particular embodiment, fixed with 1% paraformaldehyde to halt any further cellular activity.
# This analysis is correlated with the stimulation index as measured by a 72 hour PHA culture with tritiated thymidine uptake. Peripheral blood mononuclear cells from normal donors were isolated by density gradient centrifugation, cultured with PHA, incubated with monoclonal antibodies to select mononuclear cell subclass antigenic determinants and to IL-2 receptors and four parameter data generated and analyzed similar as described in “Detailed Description”. Monoclonal antibodies used included FITC-conjugated antibody for the antigenic determinants Leu-4, Leu-3a or Leu-2a, and PE-conjugated monoclonal antibody for IL-2 receptor. Four parameter data was collected on cells using an EPICS-V flow cytofluorometer (Coulter Corporation, Hialeah, Fla.) configured as described in “Detailed Description” with the following modification: the argon laser was used at 500 milliwatts. Forward and orthogonal light scatter parameters were analyzed to determine if the cell was within an area of interest which substantially included lymphocytes, lymphoblasts and monocytes. Green and red fluorescence data analysis was performed for such cells. The percentage of antigenic determinant and/or IL-2 receptor positive mononuclear cells, i.e., Leu-4+, Leu-3a+, Leu-2a+, IL2R+, leu-4+IL2R+, Leu-3a+IL2R+and Leu-2a+IL2R+, was determined as per the methods described herein. The results were not corrected for non-specific binding.
# First, mononuclear cell subclass antigenic determinant and activation antigen analysis of PHA stimulated mononuclear cells was conducted using aliquots incubated with only one monoclonal antibody.
# Analysis of the PEA stimulated mononuclear cells was conducted using aliquots incubated with a FITC-conjugated monoclonal antibody to detect antigenic determinants and anti-IL2R-PE.
# [3] = 18 hours in culture with PHA, normal donors
# [4] = 24 hours in culture with PHA, normal donors
# [5] = 48 hours in culture with PHA, normal donors
# [6] = Subject D, 18 hours in culture with PHA
# [7] = Subject D, 24 hours in culture with PHA
# [8] = Subject D, 48 hours in culture with PHA
# [9] = Subject N, 18 hours in culture with PHA
# [10] = Subject N, 48 hours in culture with PHA
substance,measurement,setting,value
phytohemagglutinin [PHA],SI at 72,[1]; Subject D,535
same,SI at 72,[1]; Subject N,8
same,IL2R+ percentage positive,[2]; 18 hours in culture with PHA,61 ± 1.9 percentage
same,Leu 2a+ percentage positive,[2]; 18 hours in culture with PHA,18 ± 1.0 percentage
same,Leu 3a+ percentage positive,[2]; 18 hours in culture with PHA,54 ± 1.7 percentage
same,Leu 4+ percentage positive,[2]; 18 hours in culture with PHA,79 ± 2.4 percentage
same,Activated Leu-2a+,[2]; [3],25 ± 6.4 Percentage
same,Activated Leu-3a+,[2]; [3],49 ± 8.9 Percentage
same,Activated Leu-4+,[2]; [3],49 ± 6.1 Percentage
same,IL2R+ percentage positive,[2]; 24 hours in culture with PHA,71 ± 1.9 percentage
same,Leu 2a+ percentage positive,[2]; 24 hours in culture with PHA,18 ± 0.7 percentage
same,Leu 3a+ percentage positive,[2]; 24 hours in culture with PHA,54 ± 1.3 percentage
same,Leu 4+ percentage positive,[2]; 24 hours in culture with PHA,77 ± 1.9 percentage
same,Activated Leu-2a+,[2]; [4],32 ± 4.5 Percentage
same,Activated Leu-3a+,[2]; [4],62 ± 8.5 Percentage
same,Activated Leu-4+,[2]; [4],62 ± 3.7 Percentage
same,IL2R+ percentage positive,[2]; 48 hours in culture with PHA,80 ± 1.5 percentage
same,Leu 2a+ percentage positive,[2]; 48 hours in culture with PHA,19 ± 2.0 percentage
same,Leu 3a+ percentage positive,[2]; 48 hours in culture with PHA,53 ± 2.8 percentage
same,Leu 4+ percentage positive,[2]; 48 hours in culture with PHA,81 ± 2.2 percentage
same,Activated Leu-2a+,[2]; [5],55 ± 8.0 Percentage
same,Activated Leu-3a+,[2]; [5],70 ± 9.5 Percentage
same,Activated Leu-4+,[2]; [5],72 ± 5.5 Percentage
same,time after initiating the culture at which a measurable amount of IL-2 receptor expression is observed,"[2]; PHA 37.5 micrograms per milliliter, 1 million cells per milliliter",about 18 hours
same,Activated Leu-2a+,[2]; [6],32 Percentage
same,Activated Leu-3a+,[2]; [6],74 Percentage
same,Activated Leu-4+,[2]; [6],68 Percentage
same,Activated Leu-2a+,[2]; [7],32 Percentage
same,Activated Leu-3a+,[2]; [7],79 Percentage
same,Activated Leu-4+,[2]; [7],75 Percentage
same,Activated Leu-2a+,[2]; [8],76 Percentage
same,Activated Leu-3a+,[2]; [8],92 Percentage
same,Activated Leu-4+,[2]; [8],84 Percentage
same,ratio of Activated Leu-3a+: Activated Leu-2a+ cells,[2]; Subject D,2.31
same,Activated Leu-2a+,[2]; [9],30 Percentage
same,Activated Leu-3a+,[2]; [9],31 Percentage
same,Activated Leu-4+,[2]; [9],32 Percentage
same,Activated Leu-4+,"[2]; Subject N, 24 hours in culture with PHA",59 Percentage
same,Activated Leu-2a+,[2]; [10],71 Percentage
same,Activated Leu-3a+,[2]; [10],44 Percentage
same,ratio of Activated Leu-3a+: Activated Leu-2a+ cells,[2]; Subject N,1.03
same,ratio of Activated Leu-3a+: Activated Leu-2a+ cells,"[2]; Subject N, listed as PRA",approximately 1.0
same,subclass preference of activation,[2]; mononuclear cells which are Leu-3a+ versus Leu-2a+,preferentially activates helper/inducer T-cells
